The results in this text go back to patent US5137920A, “Method of treating fungal infections” (Hoffmann-La Roche Inc., priority 1989, dated 1992).

Each structure is given as a SMILES string. Where a name gives a salt, the structure may show the parent alone. Read-outs that look alike come from different tables or passages of the source.

Data set [1] has as its target T1, 2,3-epoxysqualene-lanosterol cyclase (Candida albicans, UniProt Q04782).
T1 construct: there was obtained a cell-free extract (CFE) as the supernatant; endogenous in cells; host or cells: Candida albicans culture (cell-free extract, 10000 g supernatant of ruptured protoplasts)
The data set can be described thus: Inhibition of 2,3-epoxysqualene-lanosterol cyclase from Candida albicans (14C-squalene epoxide, cell-free extract). The format is biochemical.

Data set [2] is described as follows: Acute toxicity in the case of subcutaneous administration to mice. The following applies: mouse, in vivo, sc. How it is done: The IC50 values were determined graphically and are given in μg of test substance per ml. Table I contains IC50 values determined in the above test for representative members of the class of compound defined by formula I as well as data concerning the acute toxicity in the case of subcutaneous administration to mice (LD50 in mg/kg).

For data set [3], the system named is Candida albicans. As to the kind of experiment: Agar dilution method, application alone and in combination with ketoconazole (synergistic activity). The format is cell-based. The following applies: for FIC (fractional inhibitory concentration): Compound 1 + ketoconazole, synergistic if <0.5; for MIC: Candida albicans, 48 h, casitone agar, 37° C., 2 days. A general note: Agar dilution tests growth on a series of plates holding different concentrations.

Where [4] appears, read: C. albicans cell-free extract, pH 6.9, 30°, 1 hour, read-out: IC50 (converted).

T1 sequence (Q04782 whole entry): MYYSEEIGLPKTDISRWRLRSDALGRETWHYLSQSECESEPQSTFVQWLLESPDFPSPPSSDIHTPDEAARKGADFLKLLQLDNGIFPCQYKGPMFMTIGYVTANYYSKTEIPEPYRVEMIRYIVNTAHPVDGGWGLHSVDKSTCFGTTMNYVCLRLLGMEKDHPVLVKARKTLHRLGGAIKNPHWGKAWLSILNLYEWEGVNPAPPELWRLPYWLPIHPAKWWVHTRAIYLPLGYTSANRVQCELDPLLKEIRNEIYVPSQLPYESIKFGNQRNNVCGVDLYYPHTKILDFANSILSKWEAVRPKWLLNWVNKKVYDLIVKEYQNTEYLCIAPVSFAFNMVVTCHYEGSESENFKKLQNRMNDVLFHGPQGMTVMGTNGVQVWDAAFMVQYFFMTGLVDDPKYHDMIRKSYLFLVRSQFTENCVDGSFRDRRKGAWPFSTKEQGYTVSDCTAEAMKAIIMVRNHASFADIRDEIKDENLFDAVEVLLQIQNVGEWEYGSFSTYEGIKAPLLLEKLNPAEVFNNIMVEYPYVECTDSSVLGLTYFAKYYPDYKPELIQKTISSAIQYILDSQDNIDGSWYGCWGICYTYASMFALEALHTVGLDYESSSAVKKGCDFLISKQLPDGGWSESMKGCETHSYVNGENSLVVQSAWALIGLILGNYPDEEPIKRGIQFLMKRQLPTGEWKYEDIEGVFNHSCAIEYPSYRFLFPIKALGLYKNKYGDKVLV

What is called IC50 is the point on the concentration scale where inhibition reaches its midpoint. In the case of `CN(C)CCCCCCCCc1ccc(C(=O)c2ccccc2)cc1` [Compound 16, 4-[8-(Dimethylamino)octyl]benzophenone], the IC50 in data set [1] (setting [4]) was 415 nM.
Still for that read-out and setting: under `CN(C)CCCCCCc1ccc(C(=O)c2ccc(Br)cc2)cc1` [Compound 25, 4-Bromo-4'-[6-(dimethylamino)hexyl]benzophenone hydrochloride] stands 2170 nM.
Same read-out and setting: under `CN(C)CCCc1ccc(C(=O)CCc2ccc([N+](=O)[O-])cc2)cc1` [Compound 11] stands 823 nM.
Regarding `CN(C)CCCc1ccc(C(=O)CCc2ccc(F)cc2)cc1` [Compound 8, 3-(4-fluorophenyl)-4'-[3-(dimethylamino)propyl]propiophenone], the IC50 in data set [1] (setting [4]) was 1750 nM.
Same read-out and setting: under `O=C(CCc1ccccc1)c1ccc(CCCN2CCCC2)cc1` [Compound 13, 3-phenyl-4'-[3-(1-pyrrolidinyl)propyl]propiophenone] stands 1240 nM; under `CN(C)CCCCCCCc1ccc(C(=O)c2ccc(C#N)cc2)cc1` [Compound 20], 746 nM; under `O=C(/C=C/c1ccccc1)c1ccc(CCCN2CCCC2)cc1` [Compound 12, (E)-3-phenyl-4'-[3-(1-pyrrolidinyl)propyl]acrylophenone], 783 nM.
As to `C=CCN(C)CCCCCCCc1ccc(C(=O)c2ccc(Br)cc2)cc1` [Compound 22, 4-[7-(Allylmethylamino)heptyl]-4'-bromobenzophenone], in data set [1], the IC50 was 443 nM.
In the case of `CN(C)CCCCCCCc1ccc(C(=O)c2ccc(F)cc2)cc1` [Compound 3, 4'-fluoro-4-[7-(dimethylamino)heptyl]benzophenone], the IC50 in data set [1] (setting [4]) was 1230 nM.
Turning to `CN(C)CCCCCCCc1ccc(C(=O)c2ccc(Cl)cc2)cc1` [Compound 17, 4-chloro-4'-[7-(dimethylamino)heptyl]benzophenone], the half-maximal inhibitory concentration (IC50) in data set [1] (setting [4]) is 1370 nM.
The same measure, in the same setting: the same measure for `CN(C)CCCCCCCc1ccc(C(=O)c2ccc(Cl)cc2Cl)cc1` [Compound 19, 2,4-Dichloro-4'-[7-(dimethylamino)heptyl]benzophenone]: 1910 nM; for `Cc1ccccc1C(=O)c1ccc(CCCCCCN(C)C)cc1` [Compound 27, 4-[6-(Dimethylamino)hexyl]-2'-methylbenzophenone]: 495 nM.
For `CN(C)CCCCCCCc1ccc(C(=O)c2ccc(C(F)(F)F)cc2)cc1` [Compound 4, 4-[7-(dimethylamino)heptyl]-4'-(trifluoromethyl)benzophenone], in data set [1] (setting [4]), the IC50 was 3450 nM.
As to `CN(C)CCCc1ccc(C(=O)/C=C/c2ccc(Cl)cc2)cc1` [Compound 6, (E)-3-(4-chlorophenyl)-4'-[3-(dimethylamino)propyl]acrylophenone], the IC50 in data set [1] (setting [4]) was 3660 nM.
By LD50 is commonly meant the dose expected to kill half of the subjects tested. High values mean lower toxicity, low ones greater toxicity. Broadly, the MIC is the lowest concentration that inhibits growth of the organism. As for `CN(C)CCCCCCCc1ccc(C(=O)c2ccccc2)cc1` [Compound 1, 4-[7-(dimethylamino)heptyl]benzophenone], in data set [2], the 50% lethal dose (LD50) lay within 312 to 625 mg/kg. Also, in data set [1], the concentration for half-maximal inhibition (IC50) was 526 nM. Further, the “FIC (fractional inhibitory concentration)” value is listed as 0.06 in data set [3] (C. albicans B4); 0.53 in data set [3] (C. albicans B5); 0.19 in data set [3] (C. albicans H12); 0.19 in data set [3] (C. albicans H29); 0.005 in data set [3] (C. albicans H42). The MIC in combination in data set [3] (C. albicans B4, Compound 1 in combination with ketoconazole) came to 1.2 µg/mL; in data set [3] (C. albicans B5, Compound 1 in combination with ketoconazole), 1.2 µg/mL; in data set [3] (C. albicans H12, Compound 1 in combination with ketoconazole), 2.5 µg/mL; in data set [3] (C. albicans H29, Compound 1 in combination with ketoconazole), 1.2 µg/mL; in data set [3] (C. albicans H42, Compound 1 in combination with ketoconazole), 1.2 µg/mL. Also, the MIC in data set [3] (C. albicans B4, Compound 1 alone) turned out to be 20 µg/mL; in data set [3] (C. albicans B5, Compound 1 alone), 20 µg/mL; in data set [3] (C. albicans H12, Compound 1 alone), 20 µg/mL; in data set [3] (C. albicans H29, Compound 1 alone), 10 µg/mL; in data set [3] (C. albicans H42, Compound 1 alone), 20 µg/mL. In data set [3] (in combination with ketoconazole, C. albicans), the synergistic activity result is “confirms the synergistic activity”.
Take `Cc1ccccc1CCC(=O)c1ccc(CCCN(C)C)cc1` [Compound 9, 3-(2-methylphenyl)-4'-[3-(dimethylamino)propyl]propiophenone]: the 50% inhibitory concentration (IC50) in data set [1] (setting [4]) was 355 nM.
Still for that read-out and setting: under `CN(C)CCCCCCCc1ccc(C(=O)c2ccc(F)cc2F)cc1` [Compound 5, 2,4-difluoro-4'-[7-(dimethylamino)heptyl]benzophenone] stands 1530 nM; under `CN(C)CCCCCCCc1ccc(C(=O)c2ccc(Br)cc2)cc1` [Compound 18, 4-Bromo-4'-[7-(dimethylamino)heptyl]benzophenone], 2140 nM.
Same read-out and setting: under `CN(C)CCCc1ccc(C(=O)CCc2cccc(Cl)c2)cc1` [Compound 10, 3-(3-chlorophenyl)-4'-[3-(dimethylamino)propyl]propiophenone] stands 1330 nM; under `CN(C)CCCCCCc1ccc(C(=O)c2ccccc2Cl)cc1` [Compound 29, 2-Chloro-4'-[6-(dimethylamino)hexyl]benzophenone], 320 nM.
Still for that read-out and setting: the same measure for `CN(C)CCCCCCc1ccc(C(=O)c2ccc([N+](=O)[O-])cc2)cc1` [Compound 28, 4-[6-(Dimethylamino)hexyl]-4'-nitrobenzophenone]: 592 nM.
Consider `CC(=O)N1CCN(c2ccc(OCC3COC(Cn4ccnc4)(c4ccc(Cl)cc4Cl)O3)cc2)CC1` (stereo not drawn) [Ketoconazole, reference compound], for which the MIC in combination in data set [3] (C. albicans B4, Ketoconazole in combination with Compound 1) stood at 0.15 µg/mL; in data set [3] (C. albicans B5, Ketoconazole in combination with Compound 1), 0.075 µg/mL; in data set [3] (C. albicans H12, Ketoconazole in combination with Compound 1), 0.3 µg/mL; in data set [3] (C. albicans H29, Ketoconazole in combination with Compound 1), 0.075 µg/mL; in data set [3] (C. albicans H42, Ketoconazole in combination with Compound 1) it was 0.15 µg/mL. The minimum inhibitory concentration (MIC) came to 2.5 µg/mL in data set [3] (C. albicans B4, Ketoconazole alone); 0.15 µg/mL in data set [3] (C. albicans B5, Ketoconazole alone); 5 µg/mL in data set [3] (C. albicans H12, Ketoconazole alone); 1.29 µg/mL in data set [3] (C. albicans H29, Ketoconazole alone); 5 µg/mL in data set [3] (C. albicans H42, Ketoconazole alone).
Regarding `CN(C)CCCc1ccc(C(=O)c2ccccc2)cc1` [Compound 14], in data set [1] (setting [4]), the half-inhibitory concentration (IC50) is 18700 nM.
The same measure, in the same setting: under `CN(C)CCCCCCCc1ccc(C(=O)Cc2ccccc2)cc1` [Compound 2, 4'-[7-(dimethylamino)heptyl]-2-phenylacetophenone] stands 1420 nM; under `CN(C)CCCCCCCCc1ccc(C(=O)c2ccccc2)cc1` [Compound 15], 1210 nM.
On to `C=CCN(C)CCCCCCCc1ccc(C(=O)c2ccc(C#N)cc2)cc1` [Compound 23, 4-[4'-[7-(Allylmethylamino)heptyl]benzoyl]benzonitrile], for which the IC50 in data set [1] is 160 nM.
On to `CN(C)CCCCCCc1ccc(C(=O)c2cccc(Br)c2)cc1` [Compound 26, 3-Bromo-4'-[6-(dimethylamino)hexyl]benzophenone], for which the IC50 in data set [1] (setting [4]) was 1080 nM.
In data set [2], `C=CCN(C)CCCCCCc1ccc(C(=O)c2ccc(Br)cc2)cc1` [Compound 24, 4-[6-(Allylmethylamino)hexyl]-4'-bromobenzophenone] came in with an LD50 of 312 to 625 mg/kg. In addition, the 50% inhibitory concentration (IC50) in data set [1] was 229 nM.
The compound `C=CCN(C)CCCCCCCc1ccc(C(=O)c2ccccc2)cc1` [Compound 21, 4-[7-(Allylmethylamino)heptyl]benzophenone] gave a half-maximal inhibitory concentration (IC50) in data set [1] of 143 nM.
Consider `CN(C)CCCc1ccc(C(=O)CCc2ccc(Cl)cc2)cc1` [Compound 7, 3-(4-chlorophenyl)-4'-[3-(dimethylamino)propyl]propiophenone hydrochloride], for which, in data set [1] (setting [4]), the IC50 is 1090 nM.
